Measured values as given in patent publication US10376520B2, “Methods for the treatment of cardiovascular disorders” (Galapagos NV, priority 2015, dated 2019).

Test system: RA patients
Assay: Atherogenic index, Study 1 (RA patients, add-on to MTX)
Assay type: in vivo, human
Settings: for Atherogenic index Mean percentage CFB - 12 weeks results / Atherogenic index Median CFB - 12 weeks results / Atherogenic index Mean CFB: 2 × 100 mg (b.i.d. group); for atherogenic index variation, decrease compared to pre-treatment baseline: Study 1, after 12 weeks treatment
Experimental: As used herein, the term ‘atherogenic index’ refers to
Double-blind, placebo-controlled add on study in subjects with moderately to severely active RA who have an inadequate response to methotrexate (MTX) (oral or parenteral).
Compound 1 (dosed as a [Compound 1:HCl:3H2O]) is dosed for twelve weeks once daily (q.d.) (50 mg, 100 mg or 200 mg) or twice daily (b.i.d.) (25 mg, 50 mg or 100 mg); or placebo.
At Week 12, the subjects on placebo who have not achieved 20% improvement in swollen joint count (SJC66) and tender joint count (TJC68) are re-randomized automatically to receive Compound 1 (dosed as a [Compound 1:HCl:3H2O]) either at 100 mg q.d. or 50 mg b.i.d. doses in a blinded fashion; subjects on 50 mg q.d. who have not achieved 20% improvement in SJC66 and TJC68 will be assigned to 100 mg q.d. and subjects on 25 mg b.i.d. that have not achieved a 20% improvement in SJC66 and TJC68 will be assigned to 50 mg b.i.d. Subjects who switch treatment at week 12 are handled as if they discontinued at week 12 for the purpose of statistical analysis, whereas subjects in the other groups will maintain their randomized treatment until Week 24.
The atherogenic index has been identified to be a good predictor of cardiovascular disorders risks and is calculated as follows: […]

[1] = increased from 25 mg b.i.d. to 50 mg b.i.d at 12 weeks, week 1
[2] = increased from 25 mg b.i.d. to 50 mg b.i.d at 12 weeks, week 2
[3] = increased from 25 mg b.i.d. to 50 mg b.i.d at 12 weeks, week 4
[4] = increased from 25 mg b.i.d. to 50 mg b.i.d at 12 weeks, week 8
[5] = increased from 25 mg b.i.d. to 50 mg b.i.d at 12 weeks, week 12
[6] = increased from 25 mg b.i.d. to 50 mg b.i.d at 12 weeks, week 16
[7] = increased from 25 mg b.i.d. to 50 mg b.i.d at 12 weeks, week 20
[8] = increased from 25 mg b.i.d. to 50 mg b.i.d at 12 weeks, week 24
[9] = increased from 50 mg q.d. to 100 mg q.d. at 12 weeks, week 1
[10] = increased from 50 mg q.d. to 100 mg q.d. at 12 weeks, week 2
[11] = increased from 50 mg q.d. to 100 mg q.d. at 12 weeks, week 4
[12] = increased from 50 mg q.d. to 100 mg q.d. at 12 weeks, week 8
[13] = increased from 50 mg q.d. to 100 mg q.d. at 12 weeks, week 12
[14] = increased from 50 mg q.d. to 100 mg q.d. at 12 weeks, week 16
[15] = increased from 50 mg q.d. to 100 mg q.d. at 12 weeks, week 20
[16] = increased from 50 mg q.d. to 100 mg q.d. at 12 weeks, week 24
[17] = placebo switched to 50 mg b.i.d at week 12, week 16
[18] = placebo switched to 50 mg b.i.d at week 12, week 20
[19] = placebo switched to 50 mg b.i.d at week 12, week 24
[20] = placebo switched to 100 mg q.d. at week 12, week 16
[21] = placebo switched to 100 mg q.d. at week 12, week 20
[22] = placebo switched to 100 mg q.d. at week 12, week 24

## O=C(Nc1nc2cccc(-c3ccc(CN4CCS(=O)(=O)CC4)cc3)n2n1)C1CC1 [Compound 1, cyclopropanecarboxylic acid {5-[4-(1,1-dioxo-thiomorpholin-4-ylmethyl)-phenyl]-[1,2,4]triazolo[1,5-a]pyridin-2yl}-amide]
Week 2
  Atherogenic index Mean percentage CFB - 12 weeks results: −5%
  Atherogenic index Median CFB - 12 weeks results: -0.20 mmol/L
Week 4
  Atherogenic index Mean CFB: -0.30 mmol/L
  Atherogenic index Mean percentage CFB - 12 weeks results: −7%
  Atherogenic index Median CFB - 12 weeks results: -0.30 mmol/L
Week 8
  Atherogenic index Mean CFB: -0.18 mmol/L
  Atherogenic index Mean percentage CFB - 12 weeks results: −4%
  Atherogenic index Median CFB - 12 weeks results: -0.20 mmol/L
Week 12
  Atherogenic index Mean CFB: -0.24 mmol/L
  Atherogenic index Mean percentage CFB - 12 weeks results: −5%
  Atherogenic index Median CFB - 12 weeks results: -0.10 mmol/L
100 mg/bid dose
  atherogenic index variation, decrease compared to pre-treatment baseline: 0.2 fold
200 mg q.d.
  atherogenic index variation, decrease compared to pre-treatment baseline: 0.35 fold
[1]
  Atherogenic index Mean CFB - 24 weeks results: 0.05 mmol/L
  Atherogenic index Mean percentage CFB - 24 weeks results: 3.56%
  Atherogenic index Median CFB - 24 weeks results: -0.10 mmol/L
[2]
  Atherogenic index Mean CFB - 24 weeks results: -0.11 mmol/L
  Atherogenic index Mean percentage CFB - 24 weeks results: −1.15%
  Atherogenic index Median CFB - 24 weeks results: -0.20 mmol/L
[3]
  Atherogenic index Mean CFB - 24 weeks results: -0.15 mmol/L
  Atherogenic index Mean percentage CFB - 24 weeks results: −3.02%
  Atherogenic index Median CFB - 24 weeks results: -0.10 mmol/L
[4]
  Atherogenic index Mean CFB - 24 weeks results: -0.17 mmol/L
  Atherogenic index Mean percentage CFB - 24 weeks results: −3.11%
  Atherogenic index Median CFB - 24 weeks results: -0.10 mmol/L
[5]
  Atherogenic index Mean CFB - 24 weeks results: -0.19 mmol/L
  Atherogenic index Mean percentage CFB - 24 weeks results: −2.58%
  Atherogenic index Median CFB - 24 weeks results: -0.30 mmol/L
[6]
  Atherogenic index Mean CFB - 24 weeks results: -0.10 mmol/L
  Atherogenic index Mean percentage CFB - 24 weeks results: −0.03%
[7]
  Atherogenic index Mean CFB - 24 weeks results: -0.26 mmol/L
  Atherogenic index Mean percentage CFB - 24 weeks results: −4.14%
[8]
  Atherogenic index Mean CFB - 24 weeks results: -0.24 mmol/L
  Atherogenic index Mean percentage CFB - 24 weeks results: −4.89%
  Atherogenic index Median CFB - 24 weeks results: -0.30 mmol/L
[9]
  Atherogenic index Mean CFB - 24 weeks results: -0.03 mmol/L
  Atherogenic index Mean percentage CFB - 24 weeks results: 0.53%
  Atherogenic index Median CFB - 24 weeks results: 0.00 mmol/L
[10]
  Atherogenic index Mean CFB - 24 weeks results: -0.06 mmol/L
  Atherogenic index Mean percentage CFB - 24 weeks results: −0.94%
  Atherogenic index Median CFB - 24 weeks results: 0.10 mmol/L
[11]
  Atherogenic index Mean CFB - 24 weeks results: -0.11 mmol/L
  Atherogenic index Mean percentage CFB - 24 weeks results: −1.77%
  Atherogenic index Median CFB - 24 weeks results: -0.10 mmol/L
[12]
  Atherogenic index Mean CFB - 24 weeks results: -0.13 mmol/L
  Atherogenic index Mean percentage CFB - 24 weeks results: −1.35%
  Atherogenic index Median CFB - 24 weeks results: -0.10 mmol/L
[13]
  Atherogenic index Mean CFB - 24 weeks results: 0.02 mmol/L
  Atherogenic index Mean percentage CFB - 24 weeks results: 2.72%
  Atherogenic index Median CFB - 24 weeks results: 0.20 mmol/L
[14]
  Atherogenic index Mean CFB - 24 weeks results: -0.05 mmol/L
  Atherogenic index Mean percentage CFB - 24 weeks results: −0.95%
  Atherogenic index Median CFB - 24 weeks results: -0.10 mmol/L
[15]
  Atherogenic index Mean CFB - 24 weeks results: 0.02 mmol/L
  Atherogenic index Mean percentage CFB - 24 weeks results: −0.01%
  Atherogenic index Median CFB - 24 weeks results: 0.00 mmol/L
[16]
  Atherogenic index Mean CFB - 24 weeks results: -0.12 mmol/L
  Atherogenic index Mean percentage CFB - 24 weeks results: −2.40%
  Atherogenic index Median CFB - 24 weeks results: 0.00 mmol/L
[17]
  Atherogenic index Mean CFB - 24 weeks results: -0.47 mmol/L
  Atherogenic index Mean percentage CFB - 24 weeks results: −4.74%
  Atherogenic index Median CFB - 24 weeks results: -0.10 mmol/L
[18]
  Atherogenic index Mean CFB - 24 weeks results: -0.39 mmol/L
  Atherogenic index Mean percentage CFB - 24 weeks results: −6.13%
  Atherogenic index Median CFB - 24 weeks results: -0.20 mmol/L
[19]
  Atherogenic index Mean CFB - 24 weeks results: -0.45 mmol/L
  Atherogenic index Mean percentage CFB - 24 weeks results: −8.32%
  Atherogenic index Median CFB - 24 weeks results: -0.30 mmol/L
[20]
  Atherogenic index Mean CFB - 24 weeks results: -0.07 mmol/L
  Atherogenic index Mean percentage CFB - 24 weeks results: −0.54%
[21]
  Atherogenic index Mean CFB - 24 weeks results: -0.12 mmol/L
  Atherogenic index Mean percentage CFB - 24 weeks results: −1.77%
[22]
  Atherogenic index Mean CFB - 24 weeks results: -0.12 mmol/L
  Atherogenic index Mean percentage CFB - 24 weeks results: −3.43%
